Results as given in the supplement of paper PMC10307832.

How the values were obtained:
Test in all cases: relative viability (nuclei count vs DMSO), 5 days (fraction); higher = more cells survive
Linsitinib + Crizotinib = compound: C[C@]1(O)C[C@@H](c2nc(-c3ccc4ccc(-c5ccccc5)nc4c3)c3c(N)nccn32)C1 [Linsitinib] + C[C@@H](Oc1cc(-c2cnn(C3CCNCC3)c2)cnc1N)c1c(Cl)ccc(F)c1Cl [Crizotinib] (partner 1 µM)
How it was run: (§1)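 Lung cancer cell lines were seeded in 1536-well plates and dosed by pin tool the next day, with either a single drug or a fixed anchor-drug dose combined with five library-drug doses (not always all listed) spaced in √10 steps. Five days later, one step fixed the cells and stained their nuclei (final 0.05% Triton X-100, 1% formaldehyde, 1 ug/ml Hoechst), and nuclei were counted on 4× images. Relative viability is the nuclei count in treated wells divided by the count in vehicle wells, and each value is the median of duplicate plates.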

Linsitinib + Alpelisib = compound: C[C@]1(O)C[C@@H](c2nc(-c3ccc4ccc(-c5ccccc5)nc4c3)c3c(N)nccn32)C1 [Linsitinib] + Cc1nc(NC(=O)N2CCC[C@H]2C(N)=O)sc1-c1ccnc(C(C)(C)C(F)(F)F)c1 [Alpelisib] (partner 2 µM)
How it was run: as §1

Linsitinib + Lapatinib = compound: C[C@]1(O)C[C@@H](c2nc(-c3ccc4ccc(-c5ccccc5)nc4c3)c3c(N)nccn32)C1 [Linsitinib] + CS(=O)(=O)CCNCc1ccc(-c2ccc3ncnc(Nc4ccc(OCc5cccc(F)c5)c(Cl)c4)c3c2)o1 [Lapatinib] (partner 2 µM)
How it was run: as §1

Linsitinib + Dasatinib = compound: C[C@]1(O)C[C@@H](c2nc(-c3ccc4ccc(-c5ccccc5)nc4c3)c3c(N)nccn32)C1 [Linsitinib] + Cc1nc(Nc2ncc(C(=O)Nc3c(C)cccc3Cl)s2)cc(N2CCN(CCO)CC2)n1 [Dasatinib] (partner 0.075 µM)
How it was run: as §1

Cell Line	relative viability (Linsitinib + Crizotinib; first compound 0.01 µM)	relative viability (Linsitinib + Crizotinib; first compound 0.03162 µM)	relative viability (Linsitinib + Crizotinib; first compound 0.1 µM)	relative viability (Linsitinib + Crizotinib; first compound 0.3162 µM)	relative viability (Linsitinib + Crizotinib; first compound 1 µM)	relative viability (Linsitinib + Alpelisib; first compound 0.01 µM)	relative viability (Linsitinib + Alpelisib; first compound 0.03162 µM)	relative viability (Linsitinib + Alpelisib; first compound 0.1 µM)	relative viability (Linsitinib + Alpelisib; first compound 0.3162 µM)	relative viability (Linsitinib + Alpelisib; first compound 1 µM)	relative viability (Linsitinib + Lapatinib; first compound 0.01 µM)	relative viability (Linsitinib + Lapatinib; first compound 0.03162 µM)	relative viability (Linsitinib + Lapatinib; first compound 0.1 µM)	relative viability (Linsitinib + Lapatinib; first compound 0.3162 µM)	relative viability (Linsitinib + Lapatinib; first compound 1 µM)	relative viability (Linsitinib + Dasatinib; first compound 0.01 µM)	relative viability (Linsitinib + Dasatinib; first compound 0.03162 µM)	relative viability (Linsitinib + Dasatinib; first compound 0.1 µM)	relative viability (Linsitinib + Dasatinib; first compound 0.3162 µM)	relative viability (Linsitinib + Dasatinib; first compound 1 µM)
NCI-H838	0.787	0.704	0.826	0.673	0.64	1	0.979	1.05	0.853	0.755	0.963	0.929	0.883	0.286	0.591	0.273	0.258	0.267	0.227	0.225
NCI-H1755	0.833	0.85	0.901	0.825	0.81	0.938	0.875	0.961	0.78	0.896	1.01	1.02	1.04	0.54	0.876	0.428	0.431	0.427	0.363	0.229
HCC-15	0.833	0.724	0.837	0.52	0.696	0.918	0.887	0.952	0.582	0.775	0.919	0.807	0.883	0.2	0.612	0.62	0.559	0.519	–	0.35
NCI-H2087	0.763	1.01	0.836	0.842	0.729	1.06	1.2	1.02	0.853	0.815	0.886	1.26	1.13	0.349	0.626	0.756	0.917	0.819	0.549	0.624
LK-2	0.249	0.224	0.222	0.234	0.257	1.04	1.12	1.33	0.804	1.11	0.899	0.995	0.844	0.657	0.695	0.281	0.328	0.212	0.228	0.197
HCC-78	0.298	0.356	0.278	0.338	0.265	0.413	0.439	0.26	0.312	0.261	0.364	0.651	0.514	0.676	0.542	0.365	0.437	0.238	0.554	0.265
NCI-H1666	0.949	1.13	0.907	0.594	0.552	0.847	0.869	0.769	0.452	0.477	0.806	0.506	0.477	0.163	0.183	0.854	0.767	0.853	0.64	0.473
EKVX	0.895	0.938	0.99	0.795	0.943	0.842	0.848	0.856	0.901	0.756	0.212	0.262	0.231	0.23	0.161	0.603	0.625	0.532	0.513	0.5
COR-L 105	0.938	0.7	0.845	0.631	0.471	0.843	0.869	1.01	0.761	0.829	0.452	0.35	0.357	0.325	0.296	0.321	0.374	0.294	0.289	0.252
NCI-H322M	0.912	0.879	0.961	0.753	0.855	0.711	0.774	0.921	0.703	0.673	0.63	0.612	0.567	0.933	0.507	0.244	0.256	0.229	0.223	0.26
HARA	1.03	1.24	1.21	0.696	1.14	0.802	0.768	0.732	0.409	0.716	0.598	0.746	0.739	0.671	0.329	0.278	0.213	0.294	–	0.204
NCI-H2023	0.57	0.474	0.753	0.374	0.359	0.533	0.426	0.502	0.425	0.392	0.821	0.411	0.895	0.0717	0.408	0.472	0.373	0.528	0.29	0.218
NCI-H1437	0.897	0.75	0.993	0.853	0.972	0.977	0.955	0.986	0.901	0.903	0.758	0.787	0.811	0.551	0.715	0.352	0.308	0.463	0.505	0.463
BEN	0.767	1.01	0.993	0.611	0.826	1.09	1.02	0.935	0.662	1.04	0.84	0.685	0.563	–	0.58	0.419	0.316	0.318	–	0.352
LXF-289	0.789	0.885	0.807	0.671	0.792	0.992	0.988	1.1	0.841	1.02	0.924	0.911	0.901	0.643	0.886	0.244	0.203	0.182	–	0.191
NCI-H358	0.661	0.676	0.588	0.448	0.415	0.794	0.804	0.734	0.471	0.479	0.423	0.388	0.388	0.366	0.303	0.162	0.167	0.159	0.148	0.142
NCI-H1993	0.867	0.852	0.866	0.969	0.636	0.723	0.568	0.701	0.75	0.64	0.784	0.793	0.76	0.498	0.684	0.645	0.584	0.509	0.738	0.475

Cell Line	relative viability (Linsitinib + Crizotinib; first compound 0.01 µM)	relative viability (Linsitinib + Crizotinib; first compound 0.03162 µM)	relative viability (Linsitinib + Crizotinib; first compound 0.1 µM)	relative viability (Linsitinib + Crizotinib; first compound 0.3162 µM)	relative viability (Linsitinib + Crizotinib; first compound 1 µM)	relative viability (Linsitinib + Alpelisib; first compound 0.01 µM)	relative viability (Linsitinib + Alpelisib; first compound 0.03162 µM)	relative viability (Linsitinib + Alpelisib; first compound 0.1 µM)	relative viability (Linsitinib + Alpelisib; first compound 0.3162 µM)	relative viability (Linsitinib + Alpelisib; first compound 1 µM)	relative viability (Linsitinib + Lapatinib; first compound 0.01 µM)	relative viability (Linsitinib + Lapatinib; first compound 0.03162 µM)	relative viability (Linsitinib + Lapatinib; first compound 0.1 µM)	relative viability (Linsitinib + Lapatinib; first compound 0.3162 µM)	relative viability (Linsitinib + Lapatinib; first compound 1 µM)	relative viability (Linsitinib + Dasatinib; first compound 0.01 µM)	relative viability (Linsitinib + Dasatinib; first compound 0.03162 µM)	relative viability (Linsitinib + Dasatinib; first compound 0.1 µM)	relative viability (Linsitinib + Dasatinib; first compound 0.3162 µM)	relative viability (Linsitinib + Dasatinib; first compound 1 µM)
NCI-H727	0.839	0.905	0.743	0.727	0.601	0.489	0.394	0.564	0.378	0.278	0.716	0.724	0.863	0.428	0.377	0.421	0.274	0.372	0.252	0.252
LOU-NH91	0.756	0.763	0.743	0.735	0.644	0.743	0.656	0.7	0.76	0.602	0.698	0.655	0.706	0.741	0.579	0.561	0.612	0.545	0.645	0.456
NCI-H1975	0.949	0.993	0.918	0.899	0.727	0.608	0.62	0.647	0.543	0.453	0.825	0.82	0.866	1.04	0.684	0.37	0.349	0.331	0.241	0.235
PC-3 [JPC-3]	1.05	0.967	0.974	0.879	0.84	1.03	1.05	1.03	1.02	0.924	0.43	0.455	0.405	0.369	0.373	1	0.912	1.06	0.991	0.98
NCI-H2126	0.972	1.06	0.988	0.841	0.903	0.726	0.801	0.743	0.682	0.717	0.774	0.754	0.704	0.392	0.455	0.596	0.649	0.527	0.273	0.27
LU99A	0.591	0.716	0.605	0.432	0.462	0.517	0.547	0.505	0.417	0.332	0.953	0.951	0.952	0.377	0.57	0.553	0.52	0.539	0.334	0.289
NCI-H23	0.416	0.445	0.591	0.351	0.451	0.728	0.577	0.582	0.448	0.516	1.19	0.904	1.04	0.21	0.587	0.837	0.807	0.571	0.415	0.366
PC-14	0.837	0.914	0.916	0.869	0.794	0.799	0.89	0.968	0.792	0.837	0.281	0.301	0.303	0.31	0.257	0.285	0.274	0.282	0.202	0.19
A-427	0.872	0.779	1.04	–	0.726	1.11	1.02	1.05	–	0.997	1.02	0.723	1.06	–	1.08	0.712	0.78	0.723	–	0.631
NCI-H596	0.969	1.08	0.969	0.987	1.04	0.508	0.532	0.406	0.418	0.443	1.05	1.07	1.05	0.965	0.991	0.643	0.673	0.625	0.647	0.437
RERF-LC-KJ	0.803	0.816	0.849	0.731	0.739	0.838	0.9	0.832	0.878	0.757	0.8	0.846	0.826	0.554	0.645	0.75	0.964	0.697	0.543	0.454
NCI-H647	1.08	1.01	1.14	–	0.987	1.14	1.19	0.914	–	0.951	1.12	1.11	1.09	–	0.854	0.206	0.203	0.165	–	0.158
NCI-H1734	0.592	0.723	0.719	0.694	0.462	0.688	0.744	0.65	0.692	0.612	1.05	1.15	1.05	0.714	0.778	0.473	0.488	0.45	0.504	0.315
SK-LU-1	0.805	0.752	0.859	–	0.993	0.975	0.908	1.03	–	1.09	0.889	0.902	0.987	–	0.815	0.193	–	0.168	0.182	0.115
NCI-H1563	0.886	0.847	0.852	0.818	0.955	0.909	0.924	0.85	0.861	0.928	0.949	1.05	1.03	0.591	0.856	0.47	0.485	0.384	0.812	0.378
COR-L23	0.611	0.672	0.742	0.556	0.658	0.725	0.907	0.769	0.623	0.55	0.798	0.916	1.16	0.825	0.944	0.424	0.456	0.416	0.375	0.346
